Assay results: the supplement of paper PMC4862054

Key:
Conditions in all cases: incubation time: 72 h
[1] = system: CAL-120; assay: drug sensitivity score (DSS), CellTox Green (DSS (AUC-based score)); higher = stronger drug effect (viability inhibition or cytotoxicity); extreme values may be limits of the assay
Outline: (§1)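 A drug sensitivity score was derived from the area under each fitted dose-response curve. Breast cancer cells (20 µl suspension) were seeded onto compound in 384-well plates, using 5 concentrations 10-fold apart over a compound-specific 10,000-fold range, and incubated 72 h. Readouts were CellTox Green fluorescence and then CellTiter-Glo luminescence, with every plate normalised to 0.1 % DMSO and a positive kill control.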

[2] = system: MDA-MB-436; assay: as above
Outline: as §1

[3] = system: HCC1143; assay: as above
Outline: as §1

[4] = system: MFM-223; assay: as above
Outline: as §1

[5] = system: CAL-51; assay: as above
Outline: as §1

[6] = system: MDA-MB-468; assay: as above
Outline: as §1

[7] = system: HCC1937; assay: as above
Outline: as §1

[8] = system: BT-549; assay: as above
Outline: as §1

[9] = system: DU-4475; assay: as above
Outline: as §1

[10] = system: HDQ-P1; assay: as above
Outline: as §1

[11] = system: Hs578T; assay: as above
Outline: as §1

[12] = system: MDA-MB-231; assay: as above
Outline: as §1

[13] = system: MDA-MB-453; assay: as above
Outline: as §1

[14] = system: MCF-10A; assay: as above
Outline: as §1

[15] = system: CAL-120; assay: drug sensitivity score (DSS), CellTiter-Glo (DSS (AUC-based score)); higher = stronger drug effect (viability inhibition or cytotoxicity); extreme values may be limits of the assay
Outline: as §1

[16] = system: MDA-MB-436; assay: as above
Outline: as §1

[17] = system: CAL-85-1; assay: as above
Outline: as §1

[18] = system: MFM-223; assay: as above
Outline: as §1

[19] = system: CAL-51; assay: as above
Outline: as §1

[20] = system: MDA-MB-468; assay: as above
Outline: as §1

[21] = system: BT-549; assay: as above
Outline: as §1

[22] = system: SK-BR-3; assay: as above
Outline: as §1

[23] = system: DU-4475; assay: as above
Outline: as §1

[24] = system: HDQ-P1; assay: as above
Outline: as §1

[25] = system: Hs578T; assay: as above
Outline: as §1

[26] = system: MDA-MB-231; assay: as above
Outline: as §1

[27] = system: MDA-MB-453; assay: as above
Outline: as §1

SMILES | drug sensitivity score [1] | drug sensitivity score [2] | drug sensitivity score [3] | drug sensitivity score [4] | drug sensitivity score [5] | drug sensitivity score [6] | drug sensitivity score [7] | drug sensitivity score [8] | drug sensitivity score [9] | drug sensitivity score [10] | drug sensitivity score [11] | drug sensitivity score [12] | drug sensitivity score [13] | drug sensitivity score [14] | drug sensitivity score [15] | drug sensitivity score [16] | drug sensitivity score [17] | drug sensitivity score [18] | drug sensitivity score [19] | drug sensitivity score [20] | drug sensitivity score [21] | drug sensitivity score [22] | drug sensitivity score [23] | drug sensitivity score [24] | drug sensitivity score [25] | drug sensitivity score [26] | drug sensitivity score [27]
C[C@]1(O)C[C@@H](c2nc(-c3ccc4ccc(-c5ccccc5)nc4c3)c3c(N)nccn32)C1 [Linsitinib] | 0 | 14.3 | 0 | 0 | 0 | 0 | 0 | 0 | 0 | 0 | 2.22 | 4.69 | 0 | 0 | 1.76 | 0.173 | 2.88 | 0 | 0 | 4.62 | 0 | 6.62 | 0 | 5.33 | 0 | 0 | 2.26
CC1(C)CNc2cc(NC(=O)c3cccnc3NCc3ccncc3)ccc21 [Motesanib] | 0 | 0 | 0 | 0 | 0 | 0 | 0 | 0 | 0 | 0 | 0 | 0 | 0 | 0 | 0 | 0 | 0 | 0 | 0 | 0.164 | 0 | 0 | 0 | 0 | 0 | 0 | 0
Cc1ccc([N+](=O)[O-])cc1S(=O)(=O)N(C)/N=C/c1cnc2ccc(Br)cn12 [PIK-75] | 2.85 | 0 | 9.38 | 12.3 | 36.9 | 19.6 | 2.32 | 16.9 | 7.23 | 11.6 | 25.2 | 40 | 7.11 | 32.7 | 22.4 | 27.1 | 29 | 26 | 30 | 30.2 | 29 | 30.4 | 29.1 | 25.5 | 29 | 30.5 | 23
CC(=O)c1c(C)c2cnc(Nc3ccc(N4CCNCC4)cn3)nc2n(C2CCCC2)c1=O [Palbociclib] | 0 | 0 | 0 | 0 | 0 | 0 | 0 | 0 | 0 | 0 | 0 | 0 | 0 | 0 | 3.04 | 0 | 0 | 5.89 | 0.79 | 4.56 | 0 | 5.42 | 0 | 0 | 0.478 | 0 | 0
COc1cc(F)c(F)c(Nc2ccc(I)cc2F)c1NS(=O)(=O)C1(C[C@H](O)CO)CC1 [Refametinib] | 0.239 | 0 | 0 | 0 | 0 | 6.47 | 0 | 0 | 8.58 | 0 | 0 | 16.3 | 0 | 0 | 7.28 | 4.19 | 10.4 | 5.74 | 0 | 7.13 | 2.33 | 0 | 26.1 | 12.7 | 4.13 | 9.15 | 0
CC(C)(C)c1cnc(CSc2cnc(NC(=O)C3CCNCC3)s2)o1 [SNS-032] | 0 | 0 | 0 | 6.31 | 15.1 | 3.58 | 0 | 7.86 | 0 | 11.4 | 17.1 | 30.8 | 0 | 16.3 | 14.8 | 23.7 | 25.1 | 17.1 | 28.6 | 28.1 | 27 | 25.6 | 18.9 | 21.6 | 21.8 | 25.3 | 17.7
Cn1cnc2c(F)c(Nc3ccc(Br)cc3Cl)c(C(=O)NOCCO)cc21 [Selumetinib] | 2 | 0 | 0 | 0 | 0 | 6.94 | 0 | 0 | 8.17 | 2.06 | 0 | 13.2 | 0 | 0 | 3 | 0.63 | 0 | 0 | 0 | 2.35 | 0.661 | 0 | 19.9 | 11.1 | 0 | 5.56 | 0
Nc1nc2[nH]cnc2c(=S)[nH]1 [Thioguanine] | 0 | 0 | 0 | 0 | 0 | 0 | 0 | 0 | 0 | 0 | 0 | 0 | 0 | 0 | 6.5 | 4.37 | 6.09 | 0 | 5.29 | 1.72 | 1.98 | 0 | 4.33 | 7.16 | 6.84 | 10.2 | 1.4
